Measured values published in PMC5671894 (Journal of biological inorganic chemistry : JBIC : a …, 2017).
Where two headings read alike, the source gives them in different places.

Columns and labels:
PTP1B [1] = details: substrate pNPP; cited from earlier work
PTP1B [2] = details: ref Makinen, M. W. and Zhou, K. I., unpublished observations; cited from earlier work
[3] = biological target: T1, soluble portion of human PTP1B (residues 1-321) (Homo sapiens, UniProt P18031); assay type: biochemical
T1 sequence (P18031 1-321): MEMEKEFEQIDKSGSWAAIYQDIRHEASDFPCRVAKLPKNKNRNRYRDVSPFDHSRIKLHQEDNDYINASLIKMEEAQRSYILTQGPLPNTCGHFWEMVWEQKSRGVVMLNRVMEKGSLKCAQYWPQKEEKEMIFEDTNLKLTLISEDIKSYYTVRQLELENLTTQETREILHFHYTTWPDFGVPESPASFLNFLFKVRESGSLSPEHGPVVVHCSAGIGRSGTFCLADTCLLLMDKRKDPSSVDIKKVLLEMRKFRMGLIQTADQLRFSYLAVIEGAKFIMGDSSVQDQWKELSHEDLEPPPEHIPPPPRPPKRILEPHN

[4] = biological target: T1, soluble portion of human PTP1B (residues 1-321); assay: Steady-state inhibition of PTP1B-catalyzed hydrolysis of pNPP; assay type: biochemical; details: substrate pNPP; for Ki: 0.1 M NaCl, pH 5, 22° C, N2-purged
[5] = tested on: fused protein construct of glutathione-S-transferase and the full length PTP1B polypeptide chain (435 residues); details: substrate pNPP; cited from earlier work
PTP1B [6] = details: substrate DADEpYLIPQQG; malachite green, 30 min, not steady-state; cited from earlier work
[7] = tested on: Rat PTP1 (residues 1–323); details: 0.1 M ionic strength, pH 5.5; cited from earlier work
[8] = biological target: T1, soluble portion of human PTP1B (residues 1-321); assay type: biochemical; details: substrate hydrolysis, no inhibitor; this study

## CCc1oc2cc(S(=O)(=O)Nc3ccc(S(N)(=O)=O)cc3)ccc2c1C(=O)c1cc(Br)c(O)c(Br)c1 [Compound 2, 3-(3,5-dibromo-4-hydroxy-benzoyl)-2-ethyl-benzofuran-6-sulfonic acid (4-sulfamoyl-phenyl)amide]
PTP1B [1]
  mode of inhibition: noncompetitive inhibition

## CC(=O)/C=C(/C)O [Mg(acac)2]
PTP1B [2]
  Ki: > 600 µM

## CCc1occc(=O)c1[O-].CCc1occc(=O)c1[O-].[O]=[V+2] [VO(Et-malto)2, bis(2-ethyl-maltolato)oxidovanadium(IV)]
[3]; substrate EGFR^988-998 (DADEpYLIPQQG)
  mode of inhibition: noncompetitive
[3]; substrate EGFR^988–998, 0.1 M NaCl, pH 6, 20° C, N2-purged
  Ki: 140 ± 10 nM
[4]
  mode of inhibition: noncompetitive inhibition
  Ki: 14.8 ± 1.4 µM

## Cc1occc(=O)c1[O-].Cc1occc(=O)c1[O-].[O]=[V+2] [VO(Me-malto)2, bis(2-methyl-maltolato)oxidovanadium(IV)]
[5]
  mode of inhibition: mixed inhibition

## CC(=O)/C=C(/C)[O-].CC(=O)/C=C(/C)[O-].[O]=[V+2] [VO(acac)2, bis(acetylacetonato)oxidovanadium(IV)]
PTP1B [6]
  mode of inhibition: uncompetitive behavior

## Cc1[nH]ccc(=O)c1[O-].Cc1[nH]ccc(=O)c1[O-].[O]=[V+2] [VO(mpp)2, bis(3-hydroxy-2-methyl-4(1H)pyridinonato)oxidovanadium(IV)]
[4]
  mode of inhibition: competitive inhibition
  Ki: 38.2 ± 0.5 µM

## O=[N+]([O-])c1ccc(OP(=O)(O)O)cc1 [pNPP, para-nitrophenylphosphate]
[7]
  Km: 339 ± 16 µM
  kcat: 69.2 ± 1.1 s⁻¹
[8]
  Km: 460 ± 120 µM
  kcat: 62.9 ± 12.0 s⁻¹
